In patent US12653860B2, “Compositions and methods for editing beta-globin for treatment of hemaglobinopathies” (Vertex Pharmaceuticals Incorporated, priority 2019, dated 2026):

Experiments:
[1] = system: CFTR gene locus in HEK293 T cells; assay: TIDE analysis of DSB repair at CFTR gene locus; type: cell-based
Description: The effect of Nu7441 treatment on HDR was also evaluated at the CFTR gene locus in HEK293 T cells. To do so cells were electroporated with RNP comprising Cas9 and a gRNA targeting the CFTR gene locus (SEQ ID NO: 18; sgRNA target sequence identified by SEQ ID NO: 19). 2×10^5 cells were edited with 1 μM Cas9 and 1.5 μM gRNA. The cells were transfected with a ssODN donor (SEQ ID NO: 42). Cells were edited with 100 μM ssODN. The ssODN contains homology arms spanning both sides of the DSB induced by the Cas9-guide and is designed to include 3 additional base pairs (GCA) into the CFTR gene to aid detection of HDR. Cells were also treated with 5 μM Nu7441. Gene correction was assessed by TIDE analysis. TIDE analysis uses a pair of PCR reactions and standard capillary sequencing runs to identify mutations induced at the site of a DSB (see e.g., Brinkman (2014) Nucleic Acids Res 42:e168). The type of mutation induced at the DSB was indicative of the pathway used to repair the DSB. Formation of an indel comprising either an insertion or a deletion of bases was considered due to NHEJ repair; a deletion of 2-3 base pairs was considered due to MMEJ repair; while an insertion of 3 base pairs was considered due to HDR repair. Shown in FIGS. 4A-4B are mutations introduced at the DSB for cells treated with Nu7441 (FIG. 4B) compared to a DMSO negative control (FIG. 4A). […] This reduction in NHEJ repair in the presence of Nu7441 was evaluated with an additional ssODN donor (SEQ ID NO: 41).

[2] = system: HBB gene locus in CD34-expressing LT-HSPCs; assay: INDEL frequency and species at R02 cut site with DNA-PK inhibitors, NGS; type: cell-based, human; settings: 1 μg i53 mRNA; R02 RNP+AAV.307
Description: (§1) Editing was performed as described above. However, the cells were electroporated with AAV.307 administered 1 hour prior to electroporation at a dose of 10,000 MOI. The cells were electroporated with compound 296 at a concentration ranging from 0.005 μM to 10 μM, with compound 984 at a concentration ranging from 0.005 μM to […], or with 1 μg i53 mRNA. Negative control cells were electroporated with RNP+AAV only or RNP only.
(§2) Edited cells were evaluated for viability as described above, and for incorporation of gene-edits at 2 days post-electroporation. […] The frequency of INDELs induced at the R02 cut site was also evaluated by NGS analysis.
The INDELs species identified for cells edited in Experiment 2 were further evaluated to determine frequency of repair by NHEJ or MMEJ repair pathways. An INDEL of 1 nt was considered due to NHEJ repair; a deletion of −9 nt was considered due to MMEJ repair based on the microhomology present on either side of the R02 cut site. Based on percentage of total reads corresponding to these INDEL species, the ratio of gene edits due to NHEJ and MMEJ repair was evaluated.

[3] = system: PBMCs from a human donor with sickle cell disease; assay: Hemoglobin expression by HPLC in edited patient-derived PBMCs; type: cell-based; settings: compared to mock EP control cells, FIG. 34
Description: (§3) It was further evaluated if editing of patient-derived PBMCs in the presence of i53 would yield high levels of correction of the HBB gene. […] The PBMCs were expanded in StemSpan SFEM II (1×)+StemSpan CC100 (1×)+Dexamethasone […]+hEPO 2IU/mL at 37° C. under normoxic conditions (20% O2 concentration). The cells were edited following five days of in vitro culture. […] On day 8, the cells were transferred to Phase 1 media, and differentiation to erythrocytes was performed through day 18 as described above. Efficiency of HDR at the HBB gene locus was evaluated on day 12 using the NGS assay described in Example 4. Also evaluated was the frequency of INDELs at the R02 cut-site as measured by NGS.
Hemoglobin expression was measured by HPLC analysis for edited PBMCs as described above.

[4] = system: HBB gene in PBMCs from a human donor with sickle cell disease; assay: HDR correction and INDELs in patient-derived PBMCs, NGS; type: cell-based
Description: as §3

[5] = system: HBB locus; assay: Indel formation in mouse bone marrow 16 weeks post engraftment, TIDE; type: in vivo, mice
Description: (§4) NHEJ editing of the HBB locus was also evaluated in mouse bone marrow collected at 16 weeks post engraftment. Indel formation at the site of Cas9/gRNA cutting was evaluated by TIDE analysis in bone marrow samples and compared to indel formation of LT-HSPCs prior to administration.
as §4, with “administration. Regardless of the method used to edit the LT-HSPCs, indel formation was similar at 16 weeks post-engraftment to the level present prior to administration (FIG. 27).” for “administration.”

[6] = system: AAVS1 locus in hTERT RPE-1 cells; assay: HDR insertion of AAV GFP donor at AAVS1 locus in hTERT RPE-1 cells; type: cell-based, human; settings: mRNA encoding i53; AAV 25,000 MOI; FIG. 7
Description: RPE1 cells were lipofected with RNP comprised of Cas9 protein and gRNA targeting the AAVS1 locus (target sequence shown in SEQ ID NO: 3; spacer sequence shown in SEQ ID NO: 4). Cells were edited with 1 g Cas9 and 1 g gRNA. Cells were infected with AAV containing homology donor DNA encoding GFP (DJ serotype) as well as mRNA encoding i53 (mRNA ORF shown in SEQ ID NO: 69). […] HDR efficiency was determined by measuring the level of GFP fluorescence in the cells following gene-editing.

[7] = system: HBB gene in CD34-expressing LT-HSPCs derived from human patients with sickle cell disease; assay: Correction of sickle mutation (E6V to E6) by HDR in SCD patient-derived LT-HSPCs, NGS; type: cell-based; set-up: dose or concentration left out as unconfirmed; settings: R02 RNP+AAV.323 + i53 mRNA; FIG. 30A, 32B
Text: The AAV-encoded homology donor used for correction is referred to as “AAV.323” and is identified by sequence in Table 8.

[8] = system: HBB gene in CD34-expressing LT-HSPCs derived from human patients with sickle cell disease; assay: INDELs at R02 cut site in SCD patient-derived LT-HSPCs, NGS; type: cell-based; settings: FIG. 30B
Description: Editing of cells was performed following two days of in vitro culture. Briefly, 5×10^5 cells were electroporated with RNP containing 20 g SpCas9 and 20 μg R02 sgRNA, AAV.323 at a dose of 10,000 MOI, and 1 g mRNA encoding i53. The cells were incubated with AAV.323 for 1 hour prior to electroporation. The cells were edited by electroporation with R02+AAV.323+i53 mRNA and compared to control cells edited with R02 only, R02+AAV.323, or cells exposed to electroporation without RNP or AAV editing components (mock EP).
The efficiency of gene correction by HDR repair at the HBB gene locus was evaluated by NGS assay as described in Example 3. Frequency of INDELs at the R02 cut site was evaluated by NGS analysis. […] Additionally, HDR repair and INDEL formation were compared at day 0 and day 14 post-editing.

[9] = system: HBB gene locus in CD34-expressing LT-HSPCs; assay: HDR efficiency at HBB gene with R02 RNP+AAV.307 and DNA-PK inhibitors, NGS; type: cell-based, human; settings: 1 μg i53 mRNA; R02 RNP+AAV.307
Description: as §1, §2

[10] = Nu7441, either ssODN donor (SEQ ID NO: 41 or 42), FIG. 5

| Compound | HDR repair (+3 base pair insertion) ([1]; 5 μM Nu7441, ssODN SEQ ID NO: 42, FIGS. 4A-4B) | indel formation (+1, 0, or −1 base pair) ([1]; 5 μM Nu7441, ssODN SEQ ID NO: 42, vs DMSO negative control, FIGS. 4A-4B) | HDR repair [1, 10] | indel formation due to NHEJ repair [1, 10] | frequency of INDELs relative to control cells [2] | expression of HbA [3] | expression of HbS [3] | frequency of INDELs ([4]; compared to control cells, FIG. 33B) | frequency of correction of the HBB gene by HDR repair ([4]; day 12, FIG. 33A) | level of indel formation in bone marrow ([5]; AAV.304, FIG. 27) | level of indel formation in bone marrow ([5]; AAV.307, FIG. 20) | HDR efficiency over AAV alone [6] | incorporation of the E6V→E6 gene correction by HDR [7] [%] | frequency of INDELs at the R02 cut site, fold lower than RNP+AAV.323 alone [8] [fold] | level of HDR repair [9] [%] |
| --- | --- | --- | --- | --- | --- | --- | --- | --- | --- | --- | --- | --- | --- | --- | --- |
| O=c1cc(N2CCOCC2)oc2c(-c3cccc4c3sc3ccccc34)cccc12 [Nu7441] | much higher levels of HDR repair | dramatically reduced | increase in HDR repair | decreased levels of indel formation | – | – | – | – | – | – | – | – | – | – | – |
| i53: polypeptide inhibitor of 53BP1 (SEQ ID NO: 70), delivered as mRNA (ORF SEQ ID NO: 69) | – | – | – | – | reduced frequency of INDELs | increased expression of HbA | significant reduction in expression of HbS | reduced | approximately 60% | lowest | lowest | increase in HDR efficiency | 66 | 1.9 | 59 |
